Article PMC6270065, “Virtual Screening and Structure-Based Discovery of Indole Acylguanidines as Potent β-secretase (BACE1) Inhibitors” (Molecules, 2013)
Read-outs that look alike come from different tables or passages of the source.

Target: T1, BACE1 (Homo sapiens, UniProt P56817)
T1 construct: purchased Invitrogen P2985
Experiment: BACE1 fluorescence resonance energy transfer (FRET) based enzymatic inhibition assay
Format: biochemical
Details: for inhibition ratio: ligand concentration of 100 μM; for Inhibition ratio (100 μM): compound concentration 100 μM, Table 1; for inhibition at 100 µM: compound concentration 100 µM
Experimental: 3.3. Fluorescence Resonance Energy Transfer (FRET) Based Enzymatic Assay
The BACE1 fluorescence resonance energy transfer assay kit was purchased from Invitrogen (Carlsbad, CA, USA, cat. P2985). BACE1 activity assays were carried out following the manufacturer’s protocol. The enzyme, substrate, and compounds were diluted in a reaction buffer (50 mM sodium acetate, pH 4.5) to make 3× working solutions. The assay was carried out in a black 384-well microplate with a final volume of 30 μL which contains each 10 μL of 3× substrate, enzyme, and compound stocks, respectively. The final concentration of DMSO is less than 3% (v/v). The reaction mixture was incubated at 37 °C for 90 min with oscillation. Then, 10 μL of a stop solution (2.5 M sodium acetate) was added to stop the reaction. Finally, the fluorescent intensity of the enzymatic product was measured at Ex/Em = 535 nm/585 nm on a BioTek SYNERGY4 reader (BioTek, Winooski, VT, USA). Triplicate was run for each assay. IC50 values were calculated from the concentration–inhibition curves by nonlinear regression analysis. Eight concentrations were tested for each compound to produce the concentration–inhibition curve.

T1 sequence (P56817 46-501): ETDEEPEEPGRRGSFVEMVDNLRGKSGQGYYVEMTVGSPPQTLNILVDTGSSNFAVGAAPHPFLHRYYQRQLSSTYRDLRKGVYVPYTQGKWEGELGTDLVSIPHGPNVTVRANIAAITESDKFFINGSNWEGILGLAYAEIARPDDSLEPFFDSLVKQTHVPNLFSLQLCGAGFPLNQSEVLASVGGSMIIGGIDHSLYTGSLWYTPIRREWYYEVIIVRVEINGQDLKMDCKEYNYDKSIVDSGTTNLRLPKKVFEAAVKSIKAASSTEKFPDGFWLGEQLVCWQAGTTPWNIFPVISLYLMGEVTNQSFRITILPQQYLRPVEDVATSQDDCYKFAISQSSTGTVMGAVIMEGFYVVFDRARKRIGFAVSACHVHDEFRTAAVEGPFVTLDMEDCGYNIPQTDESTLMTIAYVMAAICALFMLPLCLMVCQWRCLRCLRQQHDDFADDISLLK

| SMILES | Inhibition ratio (100 μM) [%] | inhibition at 100 µM (Table 2) [%] | other results |
| --- | --- | --- | --- |
| N=C(N)NCCn1ccc2ccccc21 [Compound 4, 1-(2-(1H-indol-1-yl)ethyl)guanidine] |  |  | IC50: > 100000 nM; inhibition ratio: about 42% |
| N=C(N)NC(=O)Cn1ccc2ccccc21 [Compound 5, N-Carbamimidoyl-2-(1H-indol-1-yl)acetamide] | 77.00 |  | inhibition ratio: 77% |
| N=C(NCc1ccccc1)NC(=O)Cn1ccc2ccccc21 [Compound 12] | 40.69 |  |  |
| N=C(NCc1cccc(I)c1)NC(=O)Cn1ccc2ccccc21 [Compound 13, 2-(1H-Indol-1-yl)-N-(N-(3-iodobenzyl)carbamimidoyl)acetamide] | 85.24 |  |  |
| COc1cccc(CNC(=N)NC(=O)Cn2ccc3ccccc32)c1 [Compound 14, 2-(1H-Indol-1-yl)-N-(N-(3-methoxybenzyl)carbamimidoyl)acetamide] | 58.75 |  |  |
| N=C(NCc1cc(F)cc(F)c1)NC(=O)Cn1ccc2ccccc21 [Compound 15, N-(N-(3,5-Difluorobenzyl)carbamimidoyl)-2-(1H-indol-1-yl)acetamide] | 52.38 |  |  |
| N=C(NCc1cccc(OC(F)(F)F)c1)NC(=O)Cn1ccc2ccccc21 [Compound 16, 2-(1H-Indol-1-yl)-N-(N-(3-(trifluoromethoxy)benzyl)carbamimidoyl)acetamide] | 66.51 |  |  |
| N=C(NCc1cc(Cl)cc(Cl)c1)NC(=O)Cn1ccc2ccccc21 [Compound 17, N-(N-(3,5-Dichlorobenzyl)carbamimidoyl)-2-(1H-indol-1-yl)acetamide] | 100 |  | IC50: 8750 ± 1070 nM |
| CC(=O)Nc1ccc(CNC(=N)NC(=O)Cn2ccc3ccccc32)cc1 [Compound 18, N-(N-(4-Acetamidobenzyl)carbamimidoyl)-2-(1H-indol-1-yl)acetamide] | 35.3 |  |  |
| CC(=O)Nc1c(Cl)cc(CNC(=N)NC(=O)Cn2ccc3ccccc32)cc1Cl [Compound 19, N-(N-(4-Acetamido-3,5-dichlorobenzyl)carbamimidoyl)-2-(1H-indol-1-yl)acetamide] | 100 | 100 | IC50: 1010 ± 91 nM |
| CCNc1c(Cl)cc(CNC(=N)NC(=O)Cn2ccc3ccccc32)cc1Cl [Compound 20, N-(N-(3,5-Dichloro-4-(ethylamino)benzyl)carbamimidoyl)-2-(1H-indol-1-yl)acetamide] | 46.8 |  |  |
| CC(C)C(=O)Nc1c(Cl)cc(CNC(=N)NC(=O)Cn2ccc3ccccc32)cc1Cl [Compound 21, N-(4-((3-(2-(1H-Indol-1-yl)acetyl)guanidino)methyl)-2,6-dichlorophenyl)isobutyramide] | 92.2 |  | IC50: 1720 ± 210 nM |
| CC(=O)Nc1c(Cl)cc(CNC(=N)NC(=O)Cn2ccc3cc(Br)ccc32)cc1Cl [Compound 22, N-(N-(4-Acetamido-3,5-dichlorobenzyl)carbamimidoyl)-2-(5-bromo-1H-indol-1-yl)acetamide] |  | 109 | IC50 (Table 2): 106 ± 13 nM |
| CC(=O)Nc1c(Cl)cc(CNC(=N)NC(=O)Cn2ccc3ccc(Br)cc32)cc1Cl [Compound 23, N-(N-(4-Acetamido-3,5-dichlorobenzyl)carbamimidoyl)-2-(6-bromo-1H-indol-1-yl)acetamide] |  | 100 | IC50 (Table 2): 79 ± 8 nM |
| CC(=O)Nc1c(Cl)cc(CNC(=N)NC(=O)Cn2ccc3cc(C#N)ccc32)cc1Cl [Compound 24, N-(N-(4-Acetamido-3,5-dichlorobenzyl)carbamimidoyl)-2-(5-cyano-1H-indol-1-yl)acetamide] |  | 99.5 | IC50 (Table 2): 57 ± 4 nM |
| COc1ccc2ccn(CC(=O)NC(=N)NCc3cc(Cl)c(NC(C)=O)c(Cl)c3)c2c1 [Compound 27, N-(N-(4-Acetamido-3,5-dichlorobenzyl)carbamimidoyl)-2-(6-methoxy-1H-indol-1-yl)acetamide] |  | 103 | IC50 (Table 2): 224 ± 33 nM |
| CC(=O)Nc1c(Cl)cc(CNC(N)=NC(=O)Cn2ccc3ccc(CN(C)S(C)(=O)=O)cc32)cc1Cl [Compound 28] |  | 100 | IC50 (Table 2): 840 ± 101 nM |
